{
  "source": "patent US20100290989A1",
  "about": "“COMPOSITIONS AFFECTING HYALURONIC ACID MEDIATED ACTIVITY” (LONDON HEALTH SCIENCES CENTRE RESEARCH INC., priority 2007, published 2010)",
  "key": {"[1]": {"assay": "Isothermal calorimetry (ITC) of peptide binding to low molecular weight HA", "procedure": "(§1) The binding of soluble peptide 15-1 to HA was next evaluated by isothermal calorimetry (ITC), to estimate a binding constant for the peptide (FIG. 2, the two lines represent two independent determinations in the figure). A buffered solution of 0.9 mM low molecular weight HA (10 kD average molecular weight) was injected into to a 0.6 mM peptide 15-1 solution. […] This peptide (and the scrambled control) have been further characterized in biological systems."}, "[2]": {"test_system": "Rhamm null (Rh−/−) fibroblasts", "assay": "Scratch wound assay, Rhamm null fibroblast migration", "type": "cell-based", "settings": "with HA", "procedure": "(§2) Scratch wound assays with Rhamm null and wildtype fibroblast cells were used to evaluate the biological properties of peptide 15-1.\n(§3) Scratch wound assays are commonly used to assess the effects of drugs and drug candidates on cellular migration associated with wound closing. In a typical scratch wound assay, cells are plated to confluence in a multiwell plate. A single scratch wound is created in each well. The plate is then imaged at fixed time intervals. Cell number in the area of the scratch wound can be quantified to evaluate the characteristics of wound closing in the presence of pharmacological agents.\n(§4) The lack of HA induced migration was reversed by re-expression of Rhamm (FIG. 3a)."}, "MDA-MB 231 cells": {"test_system": "MDA-MB 231 cells", "assay": "Methylcellulose assay, anchorage independent growth of breast cancer cells", "type": "cell-based, human", "settings": "MDA-MB 231 in methylcellulose; 30 ug/ml; one week; versus scrambled control peptide", "procedure": "MDA-MB 231 cells were grown in Methylcellulose containing either peptide 15-1 (STMMSRSHKTRSHHV) or scrambled control peptide (HKSVSRHTSMRHSTM) (30 ug/ml). One week later, cells were counted."}, "[3]": {"assay": "Isothermal calorimetry (ITC) of peptide binding to high molecular weight HA", "settings": "high molecular weight HA used instead of fragmented HA", "text": "as §1, with “figure).” for “figure). A buffered solution of 0.9 mM low molecular weight HA (10 kD average molecular weight) was injected into to a 0.6 mM peptide 15-1 solution.”"}, "[4]": {"test_system": "wild-type dermal fibroblast cells", "assay": "Scratch wound assay, wild-type fibroblast migration", "type": "cell-based", "settings": "migration stimulated by 30-mer HA", "procedure": "as §2, §3, §4\nThe scratch wound assay was also used to determine the ability of various sizes of HA oligomers to promote migration of wild-type dermal fibroblast cells (FIGS. 8a and 8b)."}, "[5]": {"test_system": "Prostate tumor PC3M-LN4 cells", "assay": "Methylcellulose assay, anchorage-independent growth of prostate tumor cells with peptide", "type": "cell-based", "settings": "50 micromolar peptide; PC3M-LN4 in methylcellulose; 7 days", "procedure": "A methylcellulose assay was adapted to evaluate anchorage-independent growth of prostate tumor cells in vitro. This assay offers advantages over agarose since the gels can be easily solubilized, allowing for recovery and quantification/biochemical characterization of cells at the end of the experiment. Prostate tumor PC3M-LN4 cells which synthesize large amounts of HA grow in this assay to form large multicellular colonies. Cells were recovered and counted after 7 days of incubation.\nFifteen thousand PC3M-LN4 cells were seeded into methylcellulose in the presence of 50 micromolar of the HA binding peptide 15-1 or scrambled peptide. Each peptide was mixed with PC3M-LN4 cells prior to culturing these cells in methylcellulose (FIG. 4). Culturing these cells in the presence of 50 micromolar peptide 15-1 inhibits anchorage-independent growth by 80%, which is highly statistically significant (FIG. 4)."}, "prostate tumor cells": {"test_system": "prostate tumor cells", "assay": "In vivo growth of subcutaneously injected, peptide-pretreated tumor cells", "parameters": "species or system NOD.CB17 SCID mice", "settings": "cells pretreated with 50 micromolar peptide, tumors harvested after 28 days", "procedure": "Studies have also been performed to determine if peptide 15-1 can inhibit tumor growth in a more complex microenvironment (FIG. 5). One hundred thousand tumor cells pretreated with 50 micromolar peptide 15-1 were injected subcutaneously into NOD.CB17 SCID mice. Twenty eight days later the mice were euthanized and the tumors harvested and analyzed."}, "MDA-MB-231 cells": {"test_system": "MDA-MB-231 cells", "assay": "Scratch wound assay, breast cancer cell migration", "type": "cell-based, human", "settings": "30 ug/ml, 24 hrs, versus scrambled control peptide", "procedure": "A confluent monolayer of MDA-MB-231 cells were scratched using a pipette tip. Cells were incubated in medium containing either peptide 15-1 (STMMSRSHKTRSHHV) or scrambled control peptide (HKSVSRHTSMRHSTM) (30 ug/ml). After 24 hrs, cells that migrated into the scratch were counted."}},
  "note": "“Also recorded” adds a separate entry of the source.",
  "data": [
    {"sequence": "HKSVSRHTSMRHSTM [scrambled peptide, scrambled counterpart of peptide 15-1 used as a control, reference compound]", "values": [
      {"measurement": "interaction with HA", "setting": "[1]; low molecular weight HA (10 kD average), same conditions as peptide 15-1", "value": "did not interact with HA"}
    ]},
    {"sequence": "STMMSRSHKTRSHHV [peptide 15-1]", "values": [
      {"measurement": "inhibition of migration of Rhamm null cells", "setting": "[2]", "value": "resistant to the inhibitory effects"},
      {"measurement": "Kd", "setting": "[1]; 0.9 mM low molecular weight HA (10 kD average) injected into 0.6 mM peptide solution, estimated, read-out: binding constant (Kd)", "value": 100, "unit": "nM"},
      {"measurement": "anchorage independent growth of human breast cancer cells", "setting": "MDA-MB 231 cells", "value": "reduce anchorage independent growth"},
      {"measurement": "interaction with high molecular weight HA", "setting": "[3]", "value": "greatly reduced"},
      {"measurement": "inhibition of HA stimulated migration of wildtype cells", "setting": "[4]", "value": "sensitive to the inhibitory effects; also recorded: inhibited"},
      {"measurement": "inhibition of anchorage-independent growth", "setting": "[5]", "value": 80, "unit": "%"},
      {"measurement": "tumor growth", "setting": "prostate tumor cells", "value": "decrease in tumor growth"},
      {"measurement": "scratch wound induced migration of human breast cancer cells", "setting": "MDA-MB-231 cells", "value": "reduces scratch wound induced migration"}
    ]}
  ]
}
